Laboratory results from the NIST ThermoML archive (doi:10.1016/j.fluid.2015.07.036).

Details: for mass density: 100 kPa, Liquid, single sinker densimeter

CCCC[N+]1(C)CCCC1.N#CC(=C=[N-])C#N [1-butyl-1-methylpyrrolidinium tricyanomethanide]
Details	mass density [kg/m3]
263.25 K	1028.92
268.05 K	1026.15
274.1 K	1022.18
278.48 K	1019.29
283.44 K	1015.85
288.48 K	1012.68
292.96 K	1010.28
298.28 K	1006.87
303.21 K	1003.94
308.06 K	1000.78
313.19 K	997.8
317.91 K	995.05
323.17 K	991.69
328.28 K	988.81
333.1 K	985.27
337.77 K	982.59
343.16 K	979.77
347.27 K	977.15
353.46 K	973.98
358.07 K	970.73
364.38 K	967.59

surface tension liquid-gas [mN/m]
Details	Ring tensiometer	wilhelmy plate method
263.32 K	52.96	–
267.79 K	52.64	–
273.16 K	52.22	–
278.42 K	52.03	–
283.38 K	51.73	51.36
288.45 K	–	50.96
288.46 K	51.49	–
292.95 K	51.08	–
292.96 K	–	50.68
298.26 K	50.33	–
298.36 K	–	50.23
303.17 K	49.82	–
303.2 K	–	50.1
308.03 K	–	49.59
308.05 K	49.88	–
313.16 K	49.27	–
313.2 K	–	48.94
317.89 K	48.85	–
317.94 K	–	48.74
323.16 K	48.36	48.3
328.06 K	–	47.88
328.22 K	48.2	–
333.03 K	–	47.55
333.06 K	47.81	–
337.77 K	–	47.21
337.78 K	47.44	–
343.45 K	–	46.74
343.47 K	47.14	–
347.24 K	46.8	–
347.78 K	–	46.41
353.48 K	46.51	–
353.56 K	–	46.01
358.13 K	46.25	–
358.24 K	–	45.64
364.65 K	45.8	–
364.77 K	–	45.17

CCCC[n+]1ccc(C)cc1.N#CC(=C=[N-])C#N [1-butyl-4-methylpyridinium tricyanomethanide]
Details	mass density [kg/m3]
263.45 K	1059.1
267.95 K	1056.28
273.54 K	1052.57
278.65 K	1048.92
283.37 K	1045.67
288.63 K	1042.4
293.52 K	1038.75
298.25 K	1035.8
303.03 K	1032.82
308.01 K	1029.21
313.21 K	1025.76
318.36 K	1022.75
323.38 K	1019.48
327.88 K	1016.44
332.98 K	1013.51
337.59 K	1010.37
342.27 K	1007.38
348.16 K	1003.72
353.42 K	1000.42
358.02 K	997.29
363.31 K	993.79

surface tension liquid-gas [mN/m]
Details	Ring tensiometer	wilhelmy plate method
288.6 K	49.8	–
293.53 K	49.54	49.49
298.24 K	–	49.18
298.25 K	49.45	–
303.01 K	–	48.76
303.02 K	48.8	–
307.98 K	48.37	–
308.01 K	–	48.35
313.22 K	48.23	–
313.27 K	–	47.89
318.3 K	48.03	–
318.35 K	–	47.44
323.38 K	–	47.12
323.41 K	47.28	–
327.86 K	47.1	–
327.98 K	–	46.65
332.9 K	–	46.21
332.94 K	46.55	–
337.57 K	46.06	–
337.68 K	–	45.88
344.17 K	–	45.37
344.19 K	45.74	–
348.14 K	45.27	–
348.15 K	–	45.03
353.35 K	44.97	–
353.43 K	–	44.52
358.06 K	44.65	–
358.09 K	–	44.17
363.37 K	44.18	–
363.55 K	–	43.66

CCn1cc[n+](C)c1.N#C[C-](C#N)C#N [1-ethyl-3-methyl-1H-imidazolium tricyanomethanide]
Details	mass density [kg/m3]
262.68 K	1106.12
268.65 K	1101.93
273.46 K	1098.21
278.14 K	1095.15
283.27 K	1091.23
288.08 K	1088.11
293.16 K	1084.64
298.19 K	1081
303.27 K	1077.46
308.21 K	1073.93
313.21 K	1070.64
318.2 K	1067.14
323.32 K	1063.82
327.9 K	1060.39
333.05 K	1057.29
338.17 K	1053.46
342.95 K	1050.5
348.05 K	1047.15
352.71 K	1043.86
358.12 K	1040.23
364.84 K	1035.96

Details	surface tension liquid-gas [mN/m]
283.22 K, wilhelmy plate method	50.62
283.25 K, Ring tensiometer	50.71
288.01 K, wilhelmy plate method	50.33
288.03 K, Ring tensiometer	50.29
293.17 K, Ring tensiometer	49.61
293.19 K, wilhelmy plate method	49.74
298.13 K, Ring tensiometer	49.45
298.15 K, wilhelmy plate method	49.4
303.06 K, Ring tensiometer	48.87
303.07 K, wilhelmy plate method	48.89
308.18 K, Ring tensiometer	48.37
308.19 K, wilhelmy plate method	48.42
313.19 K, wilhelmy plate method	48.06
313.27 K, Ring tensiometer	47.99
318.16 K, wilhelmy plate method	47.48
318.18 K, Ring tensiometer	47.44
323.26 K, Ring tensiometer	46.86
323.3 K, wilhelmy plate method	47.14
327.9 K, wilhelmy plate method	46.7
328.44 K, Ring tensiometer	46.65
333.28 K, Ring tensiometer	46.24
333.4 K, wilhelmy plate method	46.16
338.24 K, wilhelmy plate method	45.83
338.25 K, Ring tensiometer	45.72
343.18 K, Ring tensiometer	45.39
343.21 K, wilhelmy plate method	45.31
347.97 K, Ring tensiometer	44.69
347.98 K, wilhelmy plate method	44.86
352.81 K, Ring tensiometer	44.55
352.89 K, wilhelmy plate method	44.44
358.17 K, Ring tensiometer	44.06
358.44 K, wilhelmy plate method	43.93
365.18 K, Ring tensiometer	43.3
365.23 K, wilhelmy plate method	43.29
